System: deposited Aβ
Assay: Prior 4-month study of BACE inhibitor in feed in aged PDAPP mice
Format: in vivo

C[C@@]1(c2cc(-c3cncnc3)c(F)cc2F)CCSC(N)=N1 [LY2811376]
change in the deposited Aβ over the 4-month interval: no change in the deposited Aβ
